Source: US11040052B2, “Methods and pharmaceutical compositions for modulating autophagy in a subject in need thereof” (INSERM (INSTITUT NATIONAL DE LA SANTE ET DE LA RECHERCHE …, priority 2013, dated 2021)
Entries after “also recorded” stand apart in the source; their conditions may differ.

Legend:
KRas-induced lung cancer = KRas-induced lung cancer (AdCre inhalation); assay type: in vivo, mice
Protocol: Atg5fl/fl mice were kindly given by Dr Noboru Mizushima. LSL-K-rasG12D;Atg5fl/fl mice were obtained as described in^7. In all experiments, only littermate mice were used as controls. All mice were maintained according to the ethical animal licence protocol complying with the Austrian and European legislation. All experiments were approved by Bundesministerium for Wissenschaft and Forschung, Austria (BMWF-66.015/0013-II/3b/2012).
Inhalation of 6-8-week-old mice with AdCre viruses was performed as previously reported (REF). In brief, experimental animals were anaesthetized with 10% Ketasol/Xylasol and placed on a heated pad. An AdCre-CaCl2 precipitate was produced by mixing […], 2.5 ml AdCre (1010 p.f.u. ml_1; University of Iowa, Gene Transfer Vector Core Iowa, USA) and 0.6 ml CaCl2 (1 M) for each mouse and incubated for 20 min at room temperature. One week after AdCre inhalation, mice were administered with 900 mg/kg HC per body weight in drinking water for 5 weeks and tumors lesions were evaluated by immunohistochemistry.
For KRas-induced lung cancers hisology, […] sections from at least three different planes were cut and stained with haematoxylin and eosin. Sections were scanned using a Mirax slide scanner and lung/tumour areas were automatically scored by an algorithm programmed and executed using the Definiens software suite and visually analyzed in a double blinded fashion. Immunhistochemical staining was performed by automatic staining machine (Leica Bond3) or manually processed. Sections were dehydrated and antigenic epitopes were retrieved using a 10-mM citrate buffer and microwaving for 10 min. Specimen were then incubated with rabbit polyclonal anti-Foxp3 (eBioscience, 13-5773, :100), anti-CD3E (Santa Cruz, 101442, 1:100). Primary Ab staining was detected by peroxidase conjugated anti-rabbit IgG (DAKO, P0448, 1:500). Positive cells were counted on 20 randomly chosen tumour areas at _400 magnifications in a double blinded fashion. Quantitative analysis was performed using HistoQuest software (TissueGnostics GmbH, Vienna, Austria; http://www.tissuegnostics.com).

[1] = test system: CT26 derived tumors expressing pmeLUC; experiment: Real time in vivo imaging of ATP release; parameters: species or system mice; conditions: autophagy competent tumors, 48 hours post chemotherapy
Protocol: BALB/c mice were subcutaneously inoculated with 3×10^5 SCR or ATG5^KD CT26 clones stably expressing pmeLUC probe, and tumor growth was monitored every 2 days. When tumor became palpable (about 8 days after injection), mice were divided in four experimental groups. The first one was intraperitoneally injected with 200 µl PBS and after 48 hs from the first injection, 200 µl of PBS was injected again (control group). The second one was injected the first time with 100 mg/kg hydroxycitrate in 200 µl of PBS and 48 hs later again 100 mg/kg hydroxycitrate in 200 µl of PBS. The third one was intraperitoneally injected with 100 mg/kg hydroxycitrate in 200 µl of PBS and 48 hs later with 100 mg/kg hydroxycitrate in 200 µl of PBS and 5.17 mg/Kg MTX in 200 µl di PBS. The last group were injected the first time with 200 µl of PBS and 48 hs later with 5.17 mg/Kg MTX in 200 µl di PBS. Thereafter, mice were anesthetized and imaged with Xenogen—IVIS® Lumina II (Caliper, Hopkinton, Mass., USA). D-luciferin (150 mg/kg) was intraperitoneally administered to mice 15 minutes before acquisitions, which were performed immediately before and after 48 hrs from compound injections. The regions of interest were identified around tumor sites and in vivo luminescence was identified as photons/s using the Living ImageH software (Caliper).

[2] = test system: TAC-induced cardiac autophagy and remodeling; experiment: In vivo model of pressure overload (thoracic aortic constriction, TAC); parameters: species or system mice; conditions: daily intra-peritoneal 300 mg/kg
Protocol: Immuno-histochemical staining of heart tissue sections was performed using the Novolink Kit (Menarini Diagnostics, RE7140-K), as previously described (Ladoire et al., 2012). Briefly, […] formalin-fixed, paraffin-embedded tissue sections were deparaffinized with 3 successive passages through xylene, and rehydrated through decreasing concentrations (100%, 95%, 80%, 70% and 50%) of ethanol. Antigen retrieval was performed by heating slides for 30 min in pH 6.0 citrate buffer at 95° C. Slides were then allowed to cool at room temperature for 45 min, mounted on Shandon Sequenza coverplates (Thermo Fisher Scientific, 72-199-50) in distilled water, and then washed twice for 5 min with 0.1% Tween 20 (v/v in PBS). Thereafter, sections were incubated for 5 min with the Peroxidase Block reagent, and subsequently washed twice for 5 min with 0.1% Tween 20 (v/v in PBS). […] Two-dimensional echocardiography was performed prior to surgery and 1 week post-surgery in non-sedated mice to quantify functional parameters using a Vevo 2100 high-resolution imaging system (Visual Sonics). […] Quantitative analysis was obtained through measurement of an average of 900 cells in each section from two (sham) or three (TAC) animals.

| SMILES | autophagy (LC3 dots) in KRas induced lung adenocarcinomas (KRas-induced lung cancer; Atg5fl/+ tumors) | Foxp3+ regulatory T cells in tumor bed (KRas-induced lung cancer; KRas;Atg5fl/+ mice) | number and size of tumor lesions (KRas-induced lung cancer; KRas;Atg5fl/+ mice, 5 weeks in drinking water) | ratio between CD8+ and Foxp3+ lymphocytes (KRas-induced lung cancer; KRas;Atg5fl/+ tumors) | lung cancers in mice without adaptive immunity (KRas-induced lung cancer; Rag2−/− mice, data not shown) | extracellular ATP release in vivo, combined with MTX [1] | TAC-induced cardiac autophagy [2] | TAC-induced pathological remodeling / heart failure features [2] |
| --- | --- | --- | --- | --- | --- | --- | --- | --- |
| O=C(O)CC(O)(C(=O)O)C(O)C(=O)O (centres unmarked) [HC, hydroxycitrate] | induced autophagy in KRas induced lung adenocarcinomas | reduces CD3+ FOXP3 Regulatory T cells in tumor bed; also recorded: reduced the density of tumor infiltration by lymphocytes expressing the Treg marker Foxp3 | reduces tumor size and lesions; also recorded: reduced the number and size of Ad-Cre-induced tumor lesions | improvement in the ratio between CD8^+ and Foxp3^+ lymphocytes | had no positive effect on lung cancers evolving in Rag2^−− mice | significantly enhances ATP release; also recorded: higher level of extracellular ATP accumulation |  |  |
| COC(=O)CCC(=O)C(=O)OC [DMKG, dimethyl-α-ketoglutarate] |  |  |  |  |  |  | decreased cardiac autophagy induced by thoracic aortic constriction (TAC); also recorded: inhibited the maladaptive accumulation of autophagosomes | suppressed TAC-induced pathological remodeling; also recorded: suppressed multiple features of TAC-induced heart failure |
